Common to all, as to assay type: cell-based
Assay [1] has as its system U2OS, MCF-7, HepG2, HL60, H1299, A549, SW480, U87, Hela cell lines. Nature of the assay: MTT cell viability assay, various human cancer cell lines. The note with it: concentration as high as 50 μM; Enz except U2OS, M17-B15 except A549. The procedure:
3-(4,5-dimethythiazol-2-yl)-2,5-diphenyl-2-H-tetrazolium bromide (MTT) colorimetric assay was employed to investigate cell viability. Cells were seeded into 96-well plates with 2-5× 10^3 cells per well (5× 10^3 cells/well for LNCaP, 22RV1, NIH-3T3, GES-1, Chang, […]
NCI-H1299, U2OS, U87) for 1 day incubation at 37 °C. Then, the cells were treated with various concentrations of compounds (22.86 nM - 50 μM) and incubated for 72 h. Then, 10 μl MTT (5 mg/ml) was added into each well and incubated for 4 h. Afterwards, 100 μl of triplex 10% SDS-0.1% HCl-phosophate-buffered saline (PBS) solutions was added into each well and incubated for overnight. The absorbance at 570 nm was measured (Eon, Bioteck, Winooski, VT). […]

Assay [2] concerns PSA, CDC20, CENPF, MKI67 mRNA in LNCaP cells. Put plainly: Quantitative PCR in LNCaP cells. To be noted: for mRNA expression of PSA: LNCaP, 0.1, 1 μM, 5 nM DHT; for mRNA expressions of CDC20, CENPF and MKI67: LNCaP, compared with DHT. The procedure: Quantitative PCR (qPCR) for PSA, CDC20, CENPF, MKI67
LNCaP cells were cultured in medium containing 5% CSS in six -well plates and treated […]
where 5 nM DHT and DMSO were separately used in parallel as controls. After 48 h incubation, EZ-10 DNAaway RNA Mini -Preps Kit (Sangon Biotech) and Hifair® Ⅲ 1st Strand cDNA Synthesis SuperMix for qPCR (YEASEN) were employed for mRNA extraction and cDNA preparation, respectively. Then, the PCR SYBR Green Master Mix (YEASEN) was employed to amplify cDNA using the prime pairs in Table S5 . […]

The next assay concerns LNCaP cells. Nature of the assay: Clonogenic (colony forming) assay, LNCaP. The note with it: 2 and 20 μM, 16-18 days. As to the method:
(§1) 1.5× 10^3 cells/well of LNCaP or 22RV1 were seeded into a 6-well plate. After 1 day
(§2) incubation, the medium of each well was removed and washed thrice using PBS. […]

The target of a further assay is T1, MR (Homo sapiens, UniProt P08235).
T1 construct: host or cells: HEK293T
T1 sequence (P08235 1-984): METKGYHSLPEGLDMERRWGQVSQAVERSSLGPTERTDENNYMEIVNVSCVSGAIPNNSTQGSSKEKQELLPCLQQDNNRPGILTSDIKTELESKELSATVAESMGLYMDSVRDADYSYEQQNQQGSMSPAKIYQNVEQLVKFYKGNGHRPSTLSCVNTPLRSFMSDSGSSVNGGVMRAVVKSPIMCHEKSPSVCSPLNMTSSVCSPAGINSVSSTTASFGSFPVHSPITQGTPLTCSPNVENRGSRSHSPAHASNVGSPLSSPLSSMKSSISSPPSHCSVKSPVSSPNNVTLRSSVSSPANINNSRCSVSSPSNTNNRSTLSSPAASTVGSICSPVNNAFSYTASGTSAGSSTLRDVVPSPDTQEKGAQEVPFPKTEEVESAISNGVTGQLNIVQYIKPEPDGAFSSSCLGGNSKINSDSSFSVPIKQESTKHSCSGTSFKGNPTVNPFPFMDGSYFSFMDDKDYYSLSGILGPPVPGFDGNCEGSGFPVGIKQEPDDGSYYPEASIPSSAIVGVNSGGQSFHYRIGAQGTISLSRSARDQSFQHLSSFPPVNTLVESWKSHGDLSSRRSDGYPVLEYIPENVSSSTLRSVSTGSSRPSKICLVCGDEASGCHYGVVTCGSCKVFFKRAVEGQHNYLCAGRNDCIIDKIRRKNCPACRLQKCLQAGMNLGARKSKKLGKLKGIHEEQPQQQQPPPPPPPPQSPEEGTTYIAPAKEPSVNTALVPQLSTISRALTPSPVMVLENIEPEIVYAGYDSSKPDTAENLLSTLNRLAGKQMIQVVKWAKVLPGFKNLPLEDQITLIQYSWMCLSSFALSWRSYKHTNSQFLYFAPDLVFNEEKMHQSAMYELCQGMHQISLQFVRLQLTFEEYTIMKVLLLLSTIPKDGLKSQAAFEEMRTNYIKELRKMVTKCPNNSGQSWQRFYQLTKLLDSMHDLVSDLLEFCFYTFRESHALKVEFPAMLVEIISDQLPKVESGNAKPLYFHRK
Nature of the assay: Luciferase reporter assay for MR (HEK293T cells). To be noted: 10 μM, 5 nM aldosterone. The procedure: Luciferase Reporter Assays for PR, GR, and MR
PC3, HeLa, and HEK293T cells were cultured using 5% CSS RPMI-1640, 5% CSS RPMI-1640 and 10% FBS DMEM media in 96-well plates for 24 h, respectively. For PR induction, PC3 (1 × 10^4 cells/well) were transfected with 50 ng pcDNA3-PRB (#89130, Addgene), 24 ng pGL4.36[luc2P MMTV Hygro] (Promega) and 5 ng Renilla using HG-TransGeneTM transfection reagent (#TG-10012, Genomeditech) for 4 h. For GR induction, Hela (1 × 10^4 cells/well) were transfected with 71 ng pCMV -GR11 (#89105, Addgene), 24 ng pGL4.36[luc2P MMTV Hygro] (Promega) and 5 ng Renilla using lip3000 transfection reagent (#L3000075, Thermofisher) for 24 h. For MR induction, HEK293T (1 × 10^4 cells/well) were transfected with 71 ng pCMV-MR gifted by Liu et al. 28, 24 ng of pGL4.36[luc2P MMTV Hygro] (Promega) and 5 ng Renilla using lip3000 transfec tion reagent for 24 h. For the antagonistic models, 10 nM /well progesterone for PC3 cells , 1 nM/well dexamethasone for HeLa, and 5 nM/well aldosterone for HEK293T cells were added to stimulate the cells. Meanwhile, each cell line was treated with a series concentration of compounds (0.4, 2, and 10 μM). For the agonistic models, the cells were directly treated with the compounds without any hormones. Endogenous hormones progesterone, dexamethasone, and aldosterone were considered as agonists for PR, GR, and MR, respectively. The luciferase activities were assessed using the Dual-Glo Luciferase system (#E1910, Promega). […]

The next assay deals with 22RV1. Put plainly: Clonogenic (colony forming) assay, 22RV1. The note with it: 2 and 20 μM, 16-18 days. The procedure:
as §1, §2

Consider `CC(=O)Cc1nsc(NC(=O)c2cc(-c3cccc(C(F)(F)F)c3)oc2C)n1` [Compound M17-B15], for which the “cell viability inhibition of various human cancer cell lines” value in assay [1] was “mild to moderate inhibitory effects”. For the same compound, in assay [2], the “mRNA expression of PSA” value is recorded as “inhibited”; the “mRNA expressions of CDC20, CENPF and MKI67” value is “significantly reduces”. For the same compound, in the assay on LNCaP cells, the “colony formation of LNCaP cells” value was “significant inhibitory activities”. The “MR antagonistic activity” value on MR is “not observed”. Moreover, the “colony formation of 22RV1” value in the assay with 22RV1 is recorded as “not”.

Consider `CNC(=O)c1ccc(N2C(=S)N(c3ccc(C#N)c(C(F)(F)F)c3)C(=O)C2(C)C)cc1F` [Enz, enzalutamide, reference compound], for which the “cell viability inhibition of various human cancer cell lines” value in assay [1] is “mild to moderate inhibitory effects”. Further, in assay [2], the “mRNA expression of PSA” value is “inhibited”; the “mRNA expressions of CDC20, CENPF and MKI67” value was “significantly reduces”. Besides, in the assay with LNCaP cells, the “colony formation of LNCaP cells” value is given as “significant inhibitory activities”. Further, at MR, the “MR antagonistic activity” value is reported as “not observed”. Besides, the “colony formation of 22RV1” value in the assay on 22RV1 is “not”.

Source of the values: article PMC10141604, “Small-Molecule Inhibition of Androgen Receptor Dimerization as a Strategy against Prostate Cancer” (ACS Central Science, 2023).
